Measurements published in ChEMBL document CHEMBL4020786, “Discovery of pyrazolo[1,5-a]pyrimidine-3-carbonitrile derivatives as a new class of histone lysine demethylase 4D (KDM4D) inhibitors” (Bioorg Med Chem Lett, 2017).

Experiments:
[1] = target: T1, Lysine-specific demethylase 4D (Homo sapiens) (UniProt Q6B0I6); test: Inhibition of KDM4D (unknown origin) at 10 uM using biotinylated H3 derived peptide as substrate preincubated for 15 mins followed by substrate addition measured after 1 hr by AlphaLISA method
T1 sequence (whole entry): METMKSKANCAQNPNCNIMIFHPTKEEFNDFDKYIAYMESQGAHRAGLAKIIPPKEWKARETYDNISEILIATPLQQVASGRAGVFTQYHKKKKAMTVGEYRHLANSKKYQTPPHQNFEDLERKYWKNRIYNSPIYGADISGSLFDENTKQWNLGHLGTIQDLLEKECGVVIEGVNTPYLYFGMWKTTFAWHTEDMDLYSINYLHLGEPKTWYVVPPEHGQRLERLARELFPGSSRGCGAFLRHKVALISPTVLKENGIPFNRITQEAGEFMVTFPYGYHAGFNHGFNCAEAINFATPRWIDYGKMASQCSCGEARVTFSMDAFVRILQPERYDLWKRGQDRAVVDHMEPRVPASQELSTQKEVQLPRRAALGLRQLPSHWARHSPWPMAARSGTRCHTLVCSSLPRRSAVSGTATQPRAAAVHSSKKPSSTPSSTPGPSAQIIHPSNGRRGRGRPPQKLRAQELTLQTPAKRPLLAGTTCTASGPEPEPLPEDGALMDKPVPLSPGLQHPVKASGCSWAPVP

[2] = target: T2, Lysine-specific demethylase 2B (Homo sapiens) (UniProt Q8NHM5); test: Inhibition of KDM2B (unknown origin) at 10 uM
T2 sequence (whole entry): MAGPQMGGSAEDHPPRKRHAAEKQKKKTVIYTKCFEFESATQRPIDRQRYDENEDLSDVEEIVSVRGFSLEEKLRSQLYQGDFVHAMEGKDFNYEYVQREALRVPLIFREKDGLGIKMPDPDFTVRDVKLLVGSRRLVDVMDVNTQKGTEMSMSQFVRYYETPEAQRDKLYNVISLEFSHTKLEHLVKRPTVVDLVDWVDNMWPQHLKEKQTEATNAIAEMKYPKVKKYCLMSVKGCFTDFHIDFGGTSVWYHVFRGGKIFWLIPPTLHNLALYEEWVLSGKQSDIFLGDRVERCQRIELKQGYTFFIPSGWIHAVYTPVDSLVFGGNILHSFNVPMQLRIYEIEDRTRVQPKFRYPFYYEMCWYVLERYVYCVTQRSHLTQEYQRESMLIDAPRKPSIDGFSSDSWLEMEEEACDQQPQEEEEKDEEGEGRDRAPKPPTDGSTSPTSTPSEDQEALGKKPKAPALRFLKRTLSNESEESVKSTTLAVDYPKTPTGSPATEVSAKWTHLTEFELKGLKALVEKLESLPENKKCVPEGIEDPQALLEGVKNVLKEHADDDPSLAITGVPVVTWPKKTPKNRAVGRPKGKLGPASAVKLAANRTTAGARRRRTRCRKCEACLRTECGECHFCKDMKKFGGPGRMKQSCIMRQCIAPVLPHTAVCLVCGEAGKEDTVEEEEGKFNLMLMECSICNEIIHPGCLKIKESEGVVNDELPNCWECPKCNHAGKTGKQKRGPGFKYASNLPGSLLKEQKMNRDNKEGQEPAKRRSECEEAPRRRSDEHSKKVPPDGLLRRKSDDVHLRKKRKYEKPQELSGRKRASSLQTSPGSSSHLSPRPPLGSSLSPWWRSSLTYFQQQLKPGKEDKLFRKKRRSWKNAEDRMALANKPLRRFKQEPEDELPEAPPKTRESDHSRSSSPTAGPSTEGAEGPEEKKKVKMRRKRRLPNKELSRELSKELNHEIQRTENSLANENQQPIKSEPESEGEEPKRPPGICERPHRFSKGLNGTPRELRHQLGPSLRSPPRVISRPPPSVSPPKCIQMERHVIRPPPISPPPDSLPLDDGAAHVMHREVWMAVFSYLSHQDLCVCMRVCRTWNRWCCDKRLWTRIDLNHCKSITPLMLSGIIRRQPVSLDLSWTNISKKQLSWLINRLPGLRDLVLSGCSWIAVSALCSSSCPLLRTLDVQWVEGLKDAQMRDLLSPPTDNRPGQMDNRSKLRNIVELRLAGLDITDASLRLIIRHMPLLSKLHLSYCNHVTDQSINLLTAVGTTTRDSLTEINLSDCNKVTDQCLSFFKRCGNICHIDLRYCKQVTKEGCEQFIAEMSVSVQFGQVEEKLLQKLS

[3] = target: Lysine-specific demethylase 3B (Homo sapiens) (UniProt Q7LBC6); test: Inhibition of KDM3B (unknown origin) at 10 uM
Sequence of Lysine-specific demethylase 3B (Homo sapiens) (Q7LBC6 whole entry): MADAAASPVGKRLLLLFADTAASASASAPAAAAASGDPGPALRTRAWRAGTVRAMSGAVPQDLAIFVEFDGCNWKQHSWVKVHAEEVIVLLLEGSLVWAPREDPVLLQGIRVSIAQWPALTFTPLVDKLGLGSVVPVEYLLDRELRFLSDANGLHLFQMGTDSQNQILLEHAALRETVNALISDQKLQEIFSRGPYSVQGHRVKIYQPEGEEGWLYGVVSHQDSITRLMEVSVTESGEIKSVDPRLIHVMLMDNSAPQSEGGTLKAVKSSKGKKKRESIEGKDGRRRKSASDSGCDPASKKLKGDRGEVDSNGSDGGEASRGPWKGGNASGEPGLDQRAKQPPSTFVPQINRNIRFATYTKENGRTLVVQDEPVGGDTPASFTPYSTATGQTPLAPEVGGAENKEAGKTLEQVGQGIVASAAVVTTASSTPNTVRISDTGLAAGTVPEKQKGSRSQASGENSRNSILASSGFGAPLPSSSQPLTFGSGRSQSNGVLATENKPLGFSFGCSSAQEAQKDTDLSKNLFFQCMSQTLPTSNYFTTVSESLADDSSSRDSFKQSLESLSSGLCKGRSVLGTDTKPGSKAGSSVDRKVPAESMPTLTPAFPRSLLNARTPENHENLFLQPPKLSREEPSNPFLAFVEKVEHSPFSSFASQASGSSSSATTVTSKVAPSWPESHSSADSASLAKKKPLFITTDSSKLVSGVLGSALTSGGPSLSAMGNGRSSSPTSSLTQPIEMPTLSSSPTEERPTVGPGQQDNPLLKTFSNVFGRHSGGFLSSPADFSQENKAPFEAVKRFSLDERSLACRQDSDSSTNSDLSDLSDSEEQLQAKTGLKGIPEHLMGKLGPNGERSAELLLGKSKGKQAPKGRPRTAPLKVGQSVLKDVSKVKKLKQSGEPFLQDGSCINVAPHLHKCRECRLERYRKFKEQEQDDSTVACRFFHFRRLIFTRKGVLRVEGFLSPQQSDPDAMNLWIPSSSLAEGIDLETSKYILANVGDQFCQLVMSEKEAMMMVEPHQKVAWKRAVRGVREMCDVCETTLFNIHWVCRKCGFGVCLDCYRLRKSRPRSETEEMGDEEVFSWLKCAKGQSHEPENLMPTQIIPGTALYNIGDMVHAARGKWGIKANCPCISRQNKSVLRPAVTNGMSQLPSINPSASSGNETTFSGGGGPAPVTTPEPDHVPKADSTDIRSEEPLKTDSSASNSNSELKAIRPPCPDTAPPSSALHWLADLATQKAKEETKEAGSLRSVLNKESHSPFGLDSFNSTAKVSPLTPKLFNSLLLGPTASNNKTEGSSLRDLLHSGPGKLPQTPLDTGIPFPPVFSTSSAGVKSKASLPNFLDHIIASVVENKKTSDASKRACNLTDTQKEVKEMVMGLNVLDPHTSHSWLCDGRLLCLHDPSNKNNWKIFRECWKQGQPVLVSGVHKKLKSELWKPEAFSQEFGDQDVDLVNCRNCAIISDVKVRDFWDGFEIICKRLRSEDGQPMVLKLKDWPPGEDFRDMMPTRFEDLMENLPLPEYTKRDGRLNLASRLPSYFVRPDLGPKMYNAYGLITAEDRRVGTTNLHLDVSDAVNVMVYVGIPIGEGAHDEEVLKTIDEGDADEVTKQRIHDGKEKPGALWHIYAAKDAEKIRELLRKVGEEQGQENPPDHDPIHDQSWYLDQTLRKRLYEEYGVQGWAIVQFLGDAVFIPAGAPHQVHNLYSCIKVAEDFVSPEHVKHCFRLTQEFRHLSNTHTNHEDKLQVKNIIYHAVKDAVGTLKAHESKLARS

[4] = target: Lysine-specific demethylase 5A (Homo sapiens) (UniProt P29375); test: Inhibition of KDM5A (unknown origin) at 10 uM
Sequence of Lysine-specific demethylase 5A (Homo sapiens) (P29375 whole entry): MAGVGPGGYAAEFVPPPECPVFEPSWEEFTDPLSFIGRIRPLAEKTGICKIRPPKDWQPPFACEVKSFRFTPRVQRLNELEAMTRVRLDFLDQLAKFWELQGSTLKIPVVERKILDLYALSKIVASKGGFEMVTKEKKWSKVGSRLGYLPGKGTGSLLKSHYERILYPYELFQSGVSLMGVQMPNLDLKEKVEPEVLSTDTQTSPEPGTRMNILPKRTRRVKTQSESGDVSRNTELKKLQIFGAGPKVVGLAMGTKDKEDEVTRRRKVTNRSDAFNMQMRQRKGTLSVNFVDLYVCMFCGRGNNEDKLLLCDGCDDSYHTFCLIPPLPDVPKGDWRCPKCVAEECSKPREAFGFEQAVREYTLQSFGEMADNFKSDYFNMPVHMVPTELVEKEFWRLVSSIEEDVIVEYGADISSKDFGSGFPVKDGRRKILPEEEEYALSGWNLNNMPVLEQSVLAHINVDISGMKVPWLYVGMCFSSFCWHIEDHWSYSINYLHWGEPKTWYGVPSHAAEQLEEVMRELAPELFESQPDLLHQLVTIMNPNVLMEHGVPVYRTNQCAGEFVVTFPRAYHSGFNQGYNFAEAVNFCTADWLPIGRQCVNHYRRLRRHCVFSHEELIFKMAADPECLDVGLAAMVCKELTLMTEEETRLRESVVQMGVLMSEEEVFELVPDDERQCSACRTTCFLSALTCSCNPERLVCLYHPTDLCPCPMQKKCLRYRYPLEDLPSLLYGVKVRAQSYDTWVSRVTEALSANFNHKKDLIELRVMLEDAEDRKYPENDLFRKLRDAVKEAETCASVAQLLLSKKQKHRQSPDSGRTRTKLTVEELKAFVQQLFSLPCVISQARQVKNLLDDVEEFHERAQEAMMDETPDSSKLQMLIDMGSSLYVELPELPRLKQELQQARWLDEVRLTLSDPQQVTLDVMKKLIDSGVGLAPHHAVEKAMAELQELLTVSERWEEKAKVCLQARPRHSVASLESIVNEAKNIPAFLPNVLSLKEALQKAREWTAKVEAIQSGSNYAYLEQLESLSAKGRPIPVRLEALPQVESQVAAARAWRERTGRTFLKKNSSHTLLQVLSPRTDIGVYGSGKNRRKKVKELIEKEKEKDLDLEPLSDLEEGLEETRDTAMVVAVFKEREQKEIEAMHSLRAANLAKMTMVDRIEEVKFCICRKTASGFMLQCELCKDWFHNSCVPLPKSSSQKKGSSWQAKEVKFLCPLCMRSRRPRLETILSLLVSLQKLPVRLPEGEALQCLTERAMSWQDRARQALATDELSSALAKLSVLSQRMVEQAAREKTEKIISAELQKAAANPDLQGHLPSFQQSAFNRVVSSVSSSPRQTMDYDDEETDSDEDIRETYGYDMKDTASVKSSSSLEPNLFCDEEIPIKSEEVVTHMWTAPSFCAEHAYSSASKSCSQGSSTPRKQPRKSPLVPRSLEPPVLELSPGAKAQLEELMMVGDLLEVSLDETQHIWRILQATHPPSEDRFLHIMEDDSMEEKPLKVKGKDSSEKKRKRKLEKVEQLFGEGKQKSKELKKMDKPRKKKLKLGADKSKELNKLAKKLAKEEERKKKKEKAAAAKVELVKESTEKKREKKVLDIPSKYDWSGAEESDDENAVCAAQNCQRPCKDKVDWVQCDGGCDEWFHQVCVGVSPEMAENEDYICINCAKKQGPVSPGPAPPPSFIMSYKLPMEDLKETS

[5] = target: T3, Lysine-specific demethylase 4D (Homo sapiens, UniProt Q6B0I6); test: Inhibition of KDM4D (unknown origin) using biotinylated H3 derived peptide as substrate preincubated for 15 mins followed by substrate addition measured after 1 hr by AlphaLISA method
T3 sequence (Q6B0I6 whole entry): T1 sequence (whole entry)

| Structure (SMILES) | inhibition [1] [%] | other results |
| --- | --- | --- |
| Oc1ccccc1-c1ccn(-c2nccc(N3CCOCC3)n2)n1 | 99.7 | inhibition [2]: 84.1%; inhibition [3]: 90.7%; inhibition [4]: 73.6% |
| N#Cc1cnn2c1nc(O)c1ccc([N+](=O)[O-])cc12 | 4.75 |  |
| N#Cc1c(-c2ccccc2)nn2c1nc(O)c1cccnc12 | 23.6 |  |
| N#Cc1cnn2c1nc(O)c1ccc(C(F)(F)F)cc12 | -0.35 |  |
| N#Cc1cnn2c1nc(O)c1ccc(C(F)(F)F)nc12 | 10.4 |  |
| N#Cc1cnn2c1nc(O)c1cccc(C(F)(F)F)c12 | 8.63 |  |
| CCc1nn2c(nc(O)c3cccnc32)c1C#N | 78.1 | IC50 [5]: 1.85 µM |
| N#Cc1cnn2c1nc(O)c1cccc([N+](=O)[O-])c12 | 73.3 | inhibition [2]: -4.85%; inhibition [3]: -2.18%; inhibition [4]: 23.1%; IC50 [5]: 3.14 µM |
| CS(=O)(=O)c1ccc2c(O)nc3c(C#N)cnn3c2c1 | 9.63 |  |

More lines, main results first:

| inhibition [1] [%] | Structure (SMILES) | other results |
| --- | --- | --- |
| 5.26 | N#Cc1cnn2c1nc(O)c1ncccc12 |  |
| 62.3 | N#Cc1cnn2c1nc(O)c1cccc(N)c12 |  |
| 88.8 | Cc1nn2c(nc(O)c3cccnc32)c1C#N | IC50 [5]: 0.41 µM |
| 1.91 | N#Cc1cnn2c1nc(O)c1cc([N+](=O)[O-])cnc12 |  |
| 58.7 | N#Cc1cnn2c1nc(O)c1ccc(Cl)nc12 |  |
| 9.03 | N#Cc1cnn2c1nc(O)c1ccccc12 |  |
| 21.9 | Cc1ccc2c(O)nc3c(C#N)cnn3c2n1 |  |
| 16.4 | N#Cc1cnn2c1nc(O)c1cnccc12 |  |
| 68.1 | N#Cc1cnn2c1nc(O)c1ccncc12 |  |
| 85.1 | N#Cc1cnn2c1ncc1cccnc12 | IC50 [5]: 4.03 µM |
| 20.1 | N#Cc1cnn2c1nc(O)c1cccnc12 |  |
| -2.25 | N#Cc1cnn2c1nc(O)c1ccc(N)cc12 |  |
| 22.9 | Cc1nc2c(C#N)cnn2c2ncccc12 |  |
